Our source for the IC50 values is ChEMBL document CHEMBL1150413, “A series of potent and selective, triazolylphenyl-based histone deacetylases inhibitors with activity against pancreatic cancer cells and Plasmodium falciparum” (J Med Chem, 2008).

Each structure is given as a SMILES string.

As usually defined, the IC50 is the concentration that inhibits the measured activity by half. A higher IC50 goes with lower potency.

In one assay the test system is Plasmodium falciparum. The assay can be described thus: Antimalarial activity against Plasmodium falciparum D6 by hypoxanthine uptake. The format is functional, organism-based.
A short description of assay [1]: Cytotoxicity against human Hup T3 cells after 72 hrs by MTT assay. It is filed as functional, cell-based. The note with it: HuP-T3, 72 h. In general terms: Tetrazolium assays rely on reduction of a dye to a coloured formazan, in cell work by metabolically active cells.

On to `O[C@@H](c1cc(C(F)(F)F)nc2c(C(F)(F)F)cccc12)[C@H]1CCCCN1` [MEFLOQUINE], for which, in the assay on Plasmodium falciparum, the half-inhibitory concentration (IC50) was found to be 11 nM.

In turn, `O=C(CCCCCCC(=O)Nc1ccccc1)NO` [VORINOSTAT] had an IC50 in assay [1] of 800 nM.
